{
  "source": "patent US20180110743A1",
  "about": "“COMPOSITIONS AND METHODS FOR TREATING HEPATOCELLULAR CARCINOMA” (Northwestern University, priority 2015, published 2018)",
  "key": {"K562/ADR": {"test_system": "K562/ADR", "test": "Growth inhibition IC50 in multidrug-resistant vs parental cells (resistance factor), K562/ADR", "format": "cell-based", "settings": "ratio of IC50 in K562/ADR to sensitive parental cells", "protocol": "(§1) To address this point, the IC50 of MEAN in cell lines with or without activated p-glycoprotein were compared based on the rationale that if an agent is a substrate, its IC50 (growth inhibition in this case) will increase substantially in cells with activated p-glycoproteins (multi-drug resistant cells). Three separate experiments were carried out to determine the values of IC50, as mean±standard deviation (μM), and the inhibition rates of each concentration of compounds were tested in triplicate. The resistance factor (RF) was calculated as the ratio of the IC50 value of the multidrug-resistant cells to that of the corresponding sensitive parental cells.\n(§2) IC50 of MEAN and reference compounds, doxorubicin and vincristine (VCR), were evaluated in three MDR expressing sublines: K562/ADR, MCF-7/ADR, and KB/VCR developed from resistance to Adriamycin (ADR) (FIG. 4C). For each of these cell lines, the RFs were measured to indicate the anti-MDR properties of the compounds. The resistance factor for doxorubicin in K562/ADR and MCF-7/ADR sublines and for vincristine in the KB/VCR subline were 74.1, 54.0, and 51.2."}, "MCF-7/ADR": {"test_system": "MCF-7/ADR", "test": "Growth inhibition IC50 in multidrug-resistant vs parental cells (resistance factor), MCF-7/ADR", "format": "cell-based", "settings": "ratio of IC50 in MCF-7/ADR to sensitive parental cells", "protocol": "as §1, §2"}, "HepG2-luc xenograft": {"test_system": "HepG2-luc xenograft", "test": "HepG2-luc xenograft tumor growth in nude mice", "format": "in vivo", "settings": "15 mg/kg each agent, IP, 5 days-on and 2 days-off for 42 days", "protocol": "(§3) FIG. 2. MEAN inhibits HepG2-luc xenograft tumor growth more potently than sorefenib in nude mice. Ten days after inoculation of 10^7 tumor cells subcutaneously, mice were treated with MEAN (15 mg/kg), sorafenib (15 mg/kg), or MEAN and sorafenib in combination at 15 mg/kg each, or vehicle through IP at a schedule of 5 days-on and 2 days-off for 42 days. The tumor growths were measured by whole mount imaging of luciferin florescence (representative images) (A) photon counts biweekly (B) and photon count at end of the experiment, day 42th (C), by volume (D), and by tumor weight at the experimental end point (E). Statistical analyses using t test are shown in (C and E), where *=p<0.5 and **=p<0.01. Where there is not black bar indicates p>0.5 (n=5).\n(§4) HepG2-luc and Huh7-luc xenograft studies of efficacy and toxicity: Male nu/nu (nude) mice (18-20 g at experiment initiation) were maintained at the vivarium of Zhejiang University in a pathogen-free unit, under a 12-hour light/dark cycle. […] Images were collected and analyzed with Living Image software (Slidebook 4.1, Denver, Colo.). Tumor volumes were determined twice weekly by mechanically measuring the length (a) and width (b), with volume=ab^2/2. Tumor weights were measured at the experimental end point, and statistical analysis was performed using Student's t test. […]"}, "Huh7-luc xenograft": {"test_system": "Huh7-luc xenograft", "test": "Huh7-luc xenograft tumor growth in nude mice", "format": "in vivo", "settings": "15 mg/kg each agent, IP, 5 days-on and 2 days-off for 42 days", "protocol": "as §3, with “1.” for “2.”, “Huh7-luc” for “HepG2-luc”\nas §4"}, "[1]": {"test": "Toxicity in treated xenograft mice: body weight, behavior, eating, stool", "format": "in vivo", "settings": "15 mg/kg each agent, 5 days on and 2 days off, six weeks", "protocol": "FIG. 3. Toxicity induced by treatment of MEAN, sorafenib or a combination of both were measured against vehicle treated group through monitoring body weight changes throughout treatment course (A) and detecting the serum levels of liver enzymes at the experimental end point (B). The recovery of liver enzymes days after experimental end point (42nd day). n=10. a: each group vs Vehicle, b: sorafenib vs MEAN, c: M+S vs MEAN. *: p<0.05, **: p<0.01, Sorafenib vs M+S: has no difference.\nHepG2-luc and Huh7-luc xenograft studies of efficacy and toxicity: Male nu/nu (nude) mice (18-20 g at experiment initiation) were maintained at the vivarium of Zhejiang University in a pathogen-free unit, under a 12-hour light/dark cycle. […] Images were collected and analyzed with Living Image software (Slidebook 4.1, Denver, Colo.). Tumor volumes were determined twice weekly by mechanically measuring the length (a) and width (b), with volume=ab^2/2. Tumor weights were measured at the experimental end point, and statistical analysis was performed using Student's t test.\nTo determine whether the combinational treatment by MEAN and sorefenib could increase toxicity compared to those caused by monotherapy, the toxicity induced by the treatment with either agent alone and in combination was evaluated in treated animals. […]"}, "c-myc [2]": {"test_system": "c-myc", "test": "Western blot of treated xenograft tumor tissue, c-myc", "format": "in vivo, mice", "settings": "Huh7 and HepG2 tumors, end of 42 day treatment", "protocol": "(§5) FIG. 6. […] The intensity of vehicle is set at 1 and ratios of treatment/vehicle are plotted in each quantitative graph.\n(§6) Cells or tumor chunks were lysed with RIPA lysis buffer (Beyotime Biotechnology, Jiangsu, China) containing 1% Halt™ Protease and Phosphatase Inhibitor Cocktail (100X) (Thermo Fisher Scientific). 20 ug of total protein per lanewere separated by 10% SDS-PAGE gels and transferred to polyvinylidene difluoride membranes (Millipore, Bedford, Mass.), and blocked with 1% BSA in TBS-Tween 20 (0.05%, v/v) for 1 h at room temperature. The membrane was incubated with primary antibody overnight at 4° C. Antibodies for c-Myc and GAPDH were obtained from Cell Signaling Technology (Beverly, Mass.), and TXNIP, SHP-1, and SIRT1 were obtained from Abcam (Cambridge, Mass.). After washing, the membrane was incubated with the appropriate horseradish peroxidase-conjugated secondary antibody (1:3000; Eptmomics) for 1 h. Blots were visualized by ECL-associated fluorography (Millipore). Relative band intensity was quantified using the ImageJ software to determine c-myc, TXNIP, SHP-1, and SIRT1 levels.\nTo evaluate whether the gene expression changes in response to MEAN is cell type specific, another HCC cell line, Huh7 was also examined for the corresponding gene expression changes upon the treatment by MEAN. […]"}, "[3]": {"test": "Serum ALT and AST measurement in treated mice", "format": "in vivo", "settings": "42nd day of treatment, 15 mg/kg each agent, vs vehicle", "protocol": "Blood samples were collected from each mouse at the end of the 42th day. Serum alanine aminotransferase aspartate (ALT) and aspartate aminotransferase (AST) were measured with an automated biochemical analyzer (DRI-CHEM 4000ie, FUJIFILM).\nTo determine whether the combinational treatment by MEAN and sorefenib could increase toxicity compared to those caused by monotherapy, the toxicity induced by the treatment with either agent alone and in combination was evaluated in treated animals. Toxicity was assessed by periodic body weight, mice behavior (grooming), eating, stool consistency, and serum liver enzymes levels (alanine aminotransferase, ALT, and aspartate aminotransferase, AST) at the experimental end points. […] This increase is reversible within 2 weeks of the treatment withdrawal (FIG. 3C)."}, "HCC": {"test_system": "HCC", "settings": "cited from earlier work"}, "SIRT1 [4]": {"test_system": "SIRT1", "test": "Western blot of treated xenograft tumor tissue, SIRT1", "format": "in vivo, mice", "settings": "Huh7 and HepG2 tumors, end of 42 day treatment", "protocol": "as §5, §6"}, "SHP-1 [5]": {"test_system": "SHP-1", "test": "Western blot of treated xenograft tumor tissue, SHP-1", "format": "in vivo, mice", "settings": "Huh7 and HepG2 tumors, end of 42 day treatment", "protocol": "as §5, §6"}, "TXNIP [6]": {"test_system": "TXNIP", "test": "Western blot of treated xenograft tumor tissue, TXNIP", "format": "in vivo, mice", "settings": "Huh7 and HepG2 tumors, end of 42 day treatment", "protocol": "as §5, §6"}, "KB/VCR": {"test_system": "KB/VCR", "test": "Growth inhibition IC50 in multidrug-resistant vs parental cells (resistance factor), KB/VCR", "format": "cell-based", "settings": "ratio of IC50 in KB/VCR to sensitive parental cells", "protocol": "as §1, §2"}, "c-myc [7]": {"test_system": "c-myc", "test": "RNA array analysis of treated HepG2 cells", "format": "cell-based, human", "settings": "20 μM for 6 hours, vs DMSO", "protocol": "RNA expression analysis was performed by GeneChip® PrimeView™ Human Gene Expression Array. Initially, genes were identified as being differentially expressed on the basis of a statistical significance (P <0.05) and 1.5-fold change (up or down) in expression levels in each comparison.\nThe choice of the treatment dose was based on the PK analyses (supplemental material) that the serum concentration of MEAN is around 20 uM approximately 6 hours after injection. Furthermore a relatively short duration of treatment was designed to catch the more primary cellular responses at the early stage of the treatment. GeneChip® PrimeView™ Human Gene Expression Array was used in triplicates to quantify RNA extracted from treated HepG2 cells."}, "HepG2 cells": {"test_system": "HepG2 cells", "test": "Cell cycle profiling by Dapi staining and flow cytometry", "format": "cell-based, human", "settings": "5 uM for 24 hours", "protocol": "After treatment, cells were washed with PBS two times and centrifugation then, re-suspended in PBS (Ca and Mg free). 3.0m1 ice cold 95% ethanol was added to the cell pellet in a dropwise manner while vortexing and then was incubated for 30 minutes. The volume was brought up to 15 mL with PBS and the cells was pelleted and washed one time with PBS via centrifugation. Cells were resuspended in 1 ml of 10 ug/ml Dapi in PBS with 0.1% TritonX-100 to a concentration of 1×10^6cells/ml and incubated for 30 minutes on ice. The samples were then analyzed through flowcytometery and the DNA contents of the cellular population were sorted and evaluated.\nAdditional evidence supporting the differences between MEAN and AMN came from their differential impact on cell cycle."}, "TXNIP [8]": {"test_system": "TXNIP", "test": "Expression in treated HCC cells in culture, TXNIP", "format": "cell-based, human", "settings": "treated cells in vitro", "protocol": "as §6"}, "SHP-1 [9]": {"test_system": "SHP-1", "test": "Western blot of treated HCC cells in culture, SHP-1", "format": "cell-based, human", "settings": "HepG2 and Huh7 cells in culture", "protocol": "as §6"}, "SIRT1 [10]": {"test_system": "SIRT1", "test": "Western blot of treated HCC cells in culture, SIRT1", "format": "cell-based, human", "settings": "HepG2 and Huh7 cells", "protocol": "as §6"}, "c-myc [11]": {"test_system": "c-myc", "test": "Western blot of treated HCC cells in culture, c-myc", "format": "cell-based, human", "settings": "HepG2 and Huh7 cells; less than 10 uM (FIG. 5B and D)", "protocol": "as §6"}},
  "note": "Read-outs that look alike come from different tables or passages of the source.",
  "data": [
    {"compound": "COc1cccc2c1C(=O)c1c(O)c3c(c(O)c1C2=O)C[C@@](O)(C(=O)CO)C[C@@H]3O[C@H]1C[C@H](N)[C@H](O)[C@H](C)O1", "note": "[doxorubicin, reference compound]", "values": [
      {"measurement": "resistance factor (RF)", "setting": "K562/ADR", "result": 74.1},
      {"measurement": "resistance factor (RF)", "setting": "MCF-7/ADR", "result": 54.0}
    ]},
    {"compound": "CNC(=O)c1cc(Oc2ccc(NC(=O)Nc3ccc(Cl)c(C(F)(F)F)c3)cc2)ccn1", "note": "[sorafenib, reference compound]", "values": [
      {"measurement": "tumor growth compared with vehicle (luciferase emission, tumor volume, tumor weight)", "setting": "HepG2-luc xenograft", "result": "significant tumor growth retardation"},
      {"measurement": "tumor growth compared with vehicle (luciferase emission, tumor volume, tumor weight)", "setting": "Huh7-luc xenograft", "result": "significant tumor growth retardation"},
      {"measurement": "body weight change", "setting": "[1]", "result": "did not significantly alter body weight"},
      {"measurement": "c-myc protein level in tumors", "setting": "c-myc [2]", "result": "does not significantly change"},
      {"measurement": "serum liver enzymes (ALT and AST) at experimental end point", "setting": "[3]", "result": "more significantly increased"},
      {"measurement": "median overall survival", "setting": "HCC; Asian study", "result": 6.5, "unit": "months"},
      {"measurement": "median overall survival", "setting": "HCC; SHARP study", "result": 10.7, "unit": "months"},
      {"measurement": "SIRT1 protein level in tumors", "setting": "SIRT1 [4]", "result": "does not significantly change"},
      {"measurement": "SHP-1 protein level in tumors", "setting": "SHP-1 [5]", "result": "does not significantly change"},
      {"measurement": "TXNIP protein level in tumors", "setting": "TXNIP [6]", "result": "does not significantly change"}
    ]},
    {"compound": "CC[C@]1(O)C[C@H]2CN(CCc3c([nH]c4ccccc34)[C@@](C(=O)OC)(c3cc4c(cc3OC)N(C=O)[C@H]3[C@@](O)(C(=O)OC)[C@H](OC(C)=O)[C@]5(CC)C=CCN6CC[C@]43[C@@H]65)C2)C1", "note": "[vincristine, reference compound]", "values": [
      {"measurement": "resistance factor (RF)", "setting": "KB/VCR", "result": 51.2}
    ]},
    {"compound": "Amonafide [AMN, reference compound]", "values": [
      {"measurement": "c-myc RNA expression level", "setting": "c-myc [7]", "result": "significantly reduce"},
      {"measurement": "cell cycle profile (DNA content)", "setting": "HepG2 cells", "result": "G2 accumulation with diminishing Gl"},
      {"measurement": "TXNIP expression", "setting": "TXNIP [8]", "result": "significantly increase"},
      {"measurement": "SHP-1 protein level", "setting": "SHP-1 [9]", "result": "does not significantly impact"},
      {"measurement": "SIRT1 protein level", "setting": "SIRT1 [10]", "result": "not significantly changed"},
      {"measurement": "c-myc (myc) protein level", "setting": "c-myc [11]", "result": "does not significantly reduces"}
    ]}
  ]
}
